Measurements as given in patent publication US8008456B2, “Compositions containing, methods involving, and uses of non-natural amino acids and polypeptides” (Ambrx, Inc., priority 2004, dated 2011).
One block for each compound: values may come before it.

Assays:
[1] = Pharmacokinetic studies, single s.c. dose in rats, plasma growth hormone ELISA; assay type: in vivo; details: single-dose 1 mg/kg bolus s.c., normal male Sprague-Dawley rats; average (+/- standard deviation)
Procedure: Pharmacokinetic properties of PEG-modified growth hormone compounds were compared to each other and to nonPEGylated growth hormone in male Sprague-Dawley rats (261-425 g) obtained from Charles River Laboratories. Catheters were surgically installed into the carotid artery for blood collection. Following successful catheter installation, animals were assigned to treatment groups (three to six per group) prior to dosing. Animals were dosed subcutaneously with 1 mg/kg of compound in a dose volume of 0.41-0.55 ml/kg. Blood samples were collected at various time points via the indwelling catheter and into EDTA-coated microfuge tubes. Plasma was collected after centrifugation, and stored at −80° C. until analysis. Compound concentrations were measured using antibody sandwich growth hormone ELISA kits from either BioSource International (Camarillo, Calif.) or Diagnostic Systems Laboratories (Webster, Tex.). Concentrations were calculated using standards corresponding to the analog that was dosed. Pharmacokinetic parameters were estimated using the modeling program WinNonlin (Pharsight, version 4.1). Noncompartmental analysis with linear-up/log-down trapezoidal integration was used, and concentration data was uniformly weighted.
Plasma concentrations were obtained at regular intervals following a single subcutaneous dose in rats. […] Plasma samples were taken over the regular time intervals and assayed for injected compound as described. […] Concentration vs time curves were evaluated by noncompartmental analysis (Pharsight, version 4.1). Values shown are averages (+/−standard deviation). Cmax: maximum concentration; terminal t1/2: terminal half-life; AUC0->inf: area under the concentration-time curve extrapolated to infinity; MRT: mean residence time; Cl/f: apparent total, plasma clearance; Vz/f: apparent volume of distribution during terminal phase.

[2] = Intracellular concentration of non-natural amino acids (cellular uptake); assay type: in vitro ADME
From the text: Non-natural amino acid uptake by a eukaryotic cell is one issue that is typically considered when designing and selecting non-natural amino acids, including but not limited to, for incorporation into a protein. […] Natural amino acids are taken up into the eukaryotic cell via a collection of protein-based transport systems. A rapid screen can be done which assesses which non-natural amino acids, if any, are taken up by cells (examples 15 & 16 herein illustrate non-limiting examples of tests which can be done on non-natural amino acids). See, e.g., the toxicity assays in, e.g., the U.S. Patent Publication No. 2004/198637 entitled “Protein Arrays,” which is herein incorporated by reference in its entirety, and Liu, D. R. & Schultz, P. G. (1999) Progress toward the evolution of an organism with an expanded genetic code. PNAS United States 96:4780-4785. Although uptake is easily analyzed with various assays, an alternative to designing non-natural amino acids that are amenable to cellular uptake pathways is to provide biosynthetic pathways to create amino acids in vivo.
(§1) This example provides results of four tests that were conducted on certain illustrative non-natural amino acids as an aid for predicting their properties for incorporation into non-natural amino acid polypeptides.

[3] = test system: aminoacyl-tRNA synthetase (RS); experiment: RS test
Procedure: as §1

[4] = pH stability tests; assay type: physicochemical
Procedure: This example provides the results of pH stability tests that were conducted on certain illustrative non-natural amino acids as an aid for predicting their properties for incorporation into non-natural amino acid polypeptides.

Compound: 30KPEG-pAF131(his)hGH: "His-tagged hGH polypeptide comprising non-natural amino acid p-acetyl-phenylalanine covalently linked to 30 kDa PEG at each of six different positions"
AUC0->inf [1]: 6,978 (±2,573) ng × hr/ml | Cl/f [1]: 161 (±61) ml/hr/kg | Cmax [1]: 497 (±187) ng/ml | MRT [1]: 14.28 (±0.92) h | Terminal t1/2 [1]: 4.41 (±0.27) h

Compound: CC(=O)C(F)(F)c1ccc(C[C@H](N)C(=O)O)cc1
Intracellular Concentration [2]: 279 µM

Compound: CC(C)=NOCc1ccc(C[C@H](N)C(=O)O)cc1
Intracellular Concentration [2]: 300 µM

Compound: COCCOC(=O)NCCO/N=C(\C)C(=O)Nc1ccccc1 [drawing 134]
pH stability ([4]; pH 4.0, 1 hour): <1% | pH stability ([4]; pH 4.0, 1 day): <1% | pH stability ([4]; pH 4.0, 2 days): <1% | pH stability ([4]; pH 4.0, 3 days): <1% | pH stability ([4]; pH 4.0, 4 days): <1% | pH stability ([4]; pH 4.0, 5 days): <1% | pH stability ([4]; pH 4.0, 6 days): <1% | pH stability ([4]; pH 4.0, 7 days): <1% | pH stability ([4]; pH 4.0, 10 days): <1% | pH stability ([4]; pH 5.0, 1 hour): <1% | pH stability ([4]; pH 5.0, 1 day): <1% | pH stability ([4]; pH 5.0, 2 days): <1% | pH stability ([4]; pH 5.0, 3 days): <1% | pH stability ([4]; pH 5.0, 4 days): <1% | pH stability ([4]; pH 5.0, 5 days): <1% | pH stability ([4]; pH 5.0, 6 days): <1% | pH stability ([4]; pH 5.0, 7 days): <1% | pH stability ([4]; pH 5.0, 10 days): <1% | pH stability ([4]; pH 6.5, 1 hour): <1% | pH stability ([4]; pH 6.5, 1 day): <1% | pH stability ([4]; pH 6.5, 2 days): <1% | pH stability ([4]; pH 6.5, 3 days): <1% | pH stability ([4]; pH 6.5, 4 days): <1% | pH stability ([4]; pH 6.5, 5 days): <1% | pH stability ([4]; pH 6.5, 6 days): <1% | pH stability ([4]; pH 6.5, 7 days): <1% | pH stability ([4]; pH 6.5, 10 days): <1% | pH stability ([4]; pH 7.4, 1 hour): <1% | pH stability ([4]; pH 7.4, 1 day): <1% | pH stability ([4]; pH 7.4, 2 days): <1% | pH stability ([4]; pH 7.4, 3 days): <1% | pH stability ([4]; pH 7.4, 4 days): <1% | pH stability ([4]; pH 7.4, 5 days): <1% | pH stability ([4]; pH 7.4, 6 days): <1% | pH stability ([4]; pH 7.4, 7 days): <1% | pH stability ([4]; pH 7.4, 10 days): <1% | pH stability ([4]; pH 8.0, 1 hour): <1% | pH stability ([4]; pH 8.0, 1 day): <1% | pH stability ([4]; pH 8.0, 2 days): <1% | pH stability ([4]; pH 8.0, 3 days): <1% | pH stability ([4]; pH 8.0, 4 days): <1% | pH stability ([4]; pH 8.0, 5 days): <1% | pH stability ([4]; pH 8.0, 6 days): <1% | pH stability ([4]; pH 8.0, 7 days): <1% | pH stability ([4]; pH 8.0, 10 days): <1%

Now from value to compound:

Intracellular Concentration [2]: 600 µM | RS test [3]: ✓
Compound: CC(=O)c1ccc(C[C@H](N)C(=O)O)cc1

Intracellular Concentration [2]: 60 µM
Compound: CC(C)=NOCOc1ccc(C[C@H](N)C(=O)O)cc1

Intracellular Concentration [2]: 1000 to 1800 µM
Compound: CC(=O)COc1ccc(C[C@H](N)C(=O)O)cc1

pH stability ([4]; pH 4.0, 1 hour): 4.0% | pH stability ([4]; pH 4.0, 1 day): <1% | pH stability ([4]; pH 4.0, 2 days): <1% | pH stability ([4]; pH 4.0, 3 days): <1% | pH stability ([4]; pH 4.0, 4 days): <1% | pH stability ([4]; pH 4.0, 5 days): <1% | pH stability ([4]; pH 4.0, 6 days): <1% | pH stability ([4]; pH 4.0, 7 days): <1% | pH stability ([4]; pH 4.0, 10 days): <1% | pH stability ([4]; pH 5.0, 1 hour): 5.0% | pH stability ([4]; pH 5.0, 1 day): <1% | pH stability ([4]; pH 5.0, 2 days): <1% | pH stability ([4]; pH 5.0, 3 days): <1% | pH stability ([4]; pH 5.0, 4 days): <1% | pH stability ([4]; pH 5.0, 5 days): <1% | pH stability ([4]; pH 5.0, 6 days): <1% | pH stability ([4]; pH 5.0, 7 days): <1% | pH stability ([4]; pH 5.0, 10 days): <1% | pH stability ([4]; pH 6.5, 1 hour): 6.5% | pH stability ([4]; pH 6.5, 1 day): <1% | pH stability ([4]; pH 6.5, 2 days): <1% | pH stability ([4]; pH 6.5, 3 days): <1% | pH stability ([4]; pH 6.5, 4 days): <1% | pH stability ([4]; pH 6.5, 5 days): <1% | pH stability ([4]; pH 6.5, 6 days): <1% | pH stability ([4]; pH 6.5, 7 days): <1% | pH stability ([4]; pH 6.5, 10 days): <1% | pH stability ([4]; pH 7.4, 1 hour): 7.4% | pH stability ([4]; pH 7.4, 1 day): <1% | pH stability ([4]; pH 7.4, 2 days): <1% | pH stability ([4]; pH 7.4, 3 days): <1% | pH stability ([4]; pH 7.4, 4 days): <1% | pH stability ([4]; pH 7.4, 5 days): <1% | pH stability ([4]; pH 7.4, 6 days): <1% | pH stability ([4]; pH 7.4, 7 days): <1% | pH stability ([4]; pH 7.4, 10 days): <1% | pH stability ([4]; pH 8.0, 1 hour): 8.0% | pH stability ([4]; pH 8.0, 1 day): <1% | pH stability ([4]; pH 8.0, 2 days): <1% | pH stability ([4]; pH 8.0, 3 days): <1% | pH stability ([4]; pH 8.0, 4 days): <1% | pH stability ([4]; pH 8.0, 5 days): <1% | pH stability ([4]; pH 8.0, 6 days): <1% | pH stability ([4]; pH 8.0, 7 days): <1% | pH stability ([4]; pH 8.0, 10 days): <1%
Compound: COCCOCNCCO/N=C(\C)CC(=O)c1ccccc1 [drawing 139]

pH stability ([4]; pH 4.0, 1 hour): 5% | pH stability ([4]; pH 4.0, 1 day): 7% | pH stability ([4]; pH 4.0, 2 days): 8% | pH stability ([4]; pH 4.0, 3 days): 10% | pH stability ([4]; pH 4.0, 4 days): 11% | pH stability ([4]; pH 4.0, 5 days): 11% | pH stability ([4]; pH 4.0, 6 days): 11% | pH stability ([4]; pH 4.0, 7 days): 11% | pH stability ([4]; pH 4.0, 10 days): 11% | pH stability ([4]; pH 5.0, 1 hour): <1% | pH stability ([4]; pH 5.0, 1 day): 3% | pH stability ([4]; pH 5.0, 2 days): 3% | pH stability ([4]; pH 5.0, 3 days): 5% | pH stability ([4]; pH 5.0, 4 days): 7% | pH stability ([4]; pH 5.0, 5 days): 7% | pH stability ([4]; pH 5.0, 6 days): 7% | pH stability ([4]; pH 5.0, 7 days): 8% | pH stability ([4]; pH 5.0, 10 days): 8% | pH stability ([4]; pH 6.5, 1 hour): <1% | pH stability ([4]; pH 6.5, 1 day): <1% | pH stability ([4]; pH 6.5, 2 days): <1% | pH stability ([4]; pH 6.5, 3 days): 2% | pH stability ([4]; pH 6.5, 4 days): 2% | pH stability ([4]; pH 6.5, 5 days): 2% | pH stability ([4]; pH 6.5, 6 days): 2% | pH stability ([4]; pH 6.5, 7 days): 2% | pH stability ([4]; pH 6.5, 10 days): 2% | pH stability ([4]; pH 7.4, 1 hour): <1% | pH stability ([4]; pH 7.4, 1 day): <1% | pH stability ([4]; pH 7.4, 2 days): <1% | pH stability ([4]; pH 7.4, 3 days): <1% | pH stability ([4]; pH 7.4, 4 days): <1% | pH stability ([4]; pH 7.4, 5 days): <1% | pH stability ([4]; pH 7.4, 6 days): <1% | pH stability ([4]; pH 7.4, 7 days): <1% | pH stability ([4]; pH 7.4, 10 days): <1% | pH stability ([4]; pH 8.0, 1 hour): 9% | pH stability ([4]; pH 8.0, 1 day): 24% | pH stability ([4]; pH 8.0, 2 days): 30% | pH stability ([4]; pH 8.0, 3 days): 30% | pH stability ([4]; pH 8.0, 4 days): 30% | pH stability ([4]; pH 8.0, 5 days): 30% | pH stability ([4]; pH 8.0, 6 days): 30% | pH stability ([4]; pH 8.0, 7 days): 33% | pH stability ([4]; pH 8.0, 10 days): 34%
Compound: COCCOC(=O)NCCO/N=C(\C)CNC(=O)c1ccccc1
